Data on five compounds can be found in patent US7138389B2, “Oral androgen therapy using modulators of testosterone bioavailability” (University of Washington, priority 2004, dated 2006).

Where two headings read alike, the source gives them in different places. Marks after values point to notes of the source that are not given here. Where a SMILES comes first, the peptide text is derived from it. [ ]: non-standard residue; d: D form. dPhe(4-NH2) = Nc1ccc(C[C@@H](N)C(=O)O)cc1; dPhe(4-Cl) = N[C@H](Cc1ccc(Cl)cc1)C(=O)O; Phe(4-NH2) = Nc1ccc(C[C@H](N)C(=O)O)cc1; d2Nal = N[C@H](Cc1ccc2ccccc2c1)C(=O)O; Lys(iPr) = CC(C)NCCCC[C@H](N)C(=O)O; d3Pal = N[C@H](Cc1cccnc1)C(=O)O

Data set [1] can be described thus: Serum testosterone pharmacokinetics after single oral doses of testosterone or testosterone enanthate in oil with and without dutasteride (Example 2). The following applies: for maximum concentration of testosterone versus normal range: normal range 8.7–33 nmol/L; for serum testosterone after oral administration in oil: 200, 400, 800 mg, all men; for Testosterone AUC (area under-the-curve): serum testosterone, mean ± SD. The method, then:
(§1) Study Design: Participants were randomly assigned to one of two groups: 1) oral testosterone in sesame oil, or 2) oral testosterone enanthate in sesame oil (Delatestryl, BTG Pharmaceuticals, Iselin, N.J.) at a concentration of 200 mg/ml. A sample size of seven subjects per group was estimated to have an 80% power with an α of 0.05 to detect a 50% in the change in serum testosterone area-under-the curve between doses. The oral testosterone enanthate in sesame oil was manufactured by the compounding pharmacy at the University of Washington. Briefly, micronized testosterone (U.S.P. grade, Spectrum Quality Projects, Gardena, Calif., USA) was suspended at 100 mg/ml in sesame oil (N.F. grade, Spectrum Quality Projects, Gardena, Calif., USA), and mixed thoroughly on a magnetic stir plate to create a homogenous testosterone enanthate/sesame oil emulsion. The compounding pharmacist then drew up the emulsion into syringes at the desired dose levels (200, 400 and 800 mg). The dose of oral testosterone enanthate in sesame oil was normalized for the testosterone content, so that the subjects in the testosterone enanthate group (molecular weight 397) were administered 276, 554 and 1108 mg of testosterone enanthate, corresponding to 200, 400 and 800 mg of testosterone.
(§2) The drug exposure period lasted 12 days (FIG. 6). […] One, two and three days after acyline administration, as per the protocol of FIG. 6, subjects drank 200, 400 or 800 mg of testosterone or testosterone enthanate in oil, mixed with 8 oz of whole milk. These doses were repeated days eight, nine and ten days after the acyline injection. […] For safety, subjects underwent daily testing of liver function (AST, bilirubin, alkaline phosphatase), kidney function (BUN, creatinine) and hematopoiesis (hemoglobin and hematocrit).
(§3) Total serum testosterone was measured by a radioimmunoassay (Diagnostic Products Corporation, Los Angeles, Calif.). […] The normal range was 8.7–33 nmol/L. DHT was measured using an RIA Kit (Diagnostic Systems Laboratory, Los Angeles, Calif.). The sensitivity of this assay was 0.043 nmol/L and the intra-assay variation for mid and low-range pools was 9.9% and 11%, with interassay coefficients of variations of 19 and 25%. […] The normal range was 3.2–47 nmol/L. The normal ranges for testosterone, DHT and SHBG were determined in our laboratory using serum samples obtained from 100 normal men aged 20–50 years.
Statistics: Hormone were log transformed prior to analysis. […] Changes between groups were analyzed by ANOVA. Statistical analyses were performed using STATA ([…], Tex., USA). Type I error was set at 0.05 for all analyses.

A short description of data set [2]: Serum DHT pharmacokinetics after single oral doses of testosterone or testosterone enanthate in oil with and without dutasteride (Example 2). The conditions noted are these: 200, 400, 800 mg; all men. The method, then: as §1, with “The compounding pharmacist then drew up the emulsion into syringes at the desired dose levels (200, 400 and 800 mg). The dose of oral testosterone enanthate in sesame oil was normalized for the testosterone content, so that the subjects in the testosterone enanthate group (molecular weight 397) were administered 276, 554 and 1108 mg of testosterone enanthate, corresponding to 200, 400 and 800 mg of testosterone.” left out
Total serum testosterone was measured by a radioimmunoassay (Diagnostic Products Corporation, Los Angeles, Calif.). […] The normal range was 8.7–33 nmol/L. DHT was measured using an RIA Kit (Diagnostic Systems Laboratory, Los Angeles, Calif.). […] The normal range was 3.2–47 nmol/L. The normal ranges for testosterone, DHT and SHBG were determined in our laboratory using serum samples obtained from 100 normal men aged 20–50 years.
Statistics: Hormone were log transformed prior to analysis. […] Changes between groups were analyzed by ANOVA. […]

The conditions of data set [3]: cited from earlier work.
Data set [4] relates to serum proteins (SHBG, albumin). The conditions noted are these: cited from earlier work.
For data set [5] the following is noted: in vivo; cited from earlier work.
Data set [6] concerns endogenous testosterone production. The conditions noted are these: cited from earlier work.
For data set [7] the test system is unchanged. The data set can be described thus: Suppression of endogenous testosterone production by GnRH antagonist acyline. In kind it is in vivo, human. The method, then: as §2, §3
On the set-up of data set [8]: species or system human. The following applies: in vivo. From the text: The drug exposure period lasted 12 days (FIG. 6).
The test system of data set [9] is 5-α-reductase. The conditions noted are these: cited from earlier work.
The conditions of data set [10]: men receiving testosterone by intramuscular administration; cited from earlier work.

Consider `CCCCCCC(=O)O[C@H]1CC[C@H]2[C@@H]3CCC4=CC(=O)CC[C@]4(C)[C@H]3CC[C@]12C` [Testosterone Enanthate-only, testosterone enanthate], for which the “maximum concentration of testosterone versus normal range” value in data set [1] (400 mg oral dose in oil) and in data set [1] (800 mg oral dose in oil) was “exceeding the normal range” in each case. In [1], the “serum testosterone after oral administration in oil” value is “significantly increased in all men in a dose-dependent fashion”. For the same compound, in [2], the “serum DHT after oral administration in oil” value is listed as “significantly increased the serum DHT in all men in a dose-dependent fashion”.

Regarding `CCCCCCCCCCC(=O)O[C@H]1CC[C@H]2[C@@H]3CCC4=CC(=O)CC[C@]4(C)[C@H]3CC[C@]12C` [Testosterone undecanoate], the “effect of food intake on absorption” value in data set [3] (oral (Bagchus et al.)) is “dramatically improved”. In data set [3] (oral), the “serum DHT on oral TU therapy” value is listed as “well above the normal range” and the “serum testosterone on oral TU therapy” value is “therapeutic increases”.

For `C[C@]12CC[C@H]3[C@@H](CCC4=CC(=O)CC[C@@]43C)[C@@H]1CC[C@@H]2O` [Testosterone-only, testosterone], the “blood testosterone bound to serum proteins” value in data set [4] is reported as “About 98%”. For the same compound, the “circulating plasma testosterone bound to sex hormone-binding globulin (SHBG)” value in data set [4] was “Approximately 40%”. The “circulating plasma testosterone unbound (free)” value in data set [4] (plasma) is 2%. Also, the “maximum concentration of testosterone versus normal range” value in [1] (800 mg oral dose in oil) is “exceeding the normal range”. For the same compound, in data set [1], the “serum testosterone after oral administration in oil” value is reported as “significantly increased in all men in a dose-dependent fashion”. The “Testosterone AUC (area under-the-curve)” value in [1] (single oral dose 200 mg in oil) was 124 ± 28 nmol·h/L; in data set [1] (single oral dose 200 mg in oil, listed as testosterone-alone), 124 ± 28 nmol·h/L; in [1] (single oral dose 400 mg in oil), 208 ± 74^a nmol-hours/L; in data set [1] (single oral dose 400 mg in oil, listed as testosterone-alone) it was 208 ± 74 nmol·h/L; in [1] (single oral dose 800 mg in oil) it was 328 ± 72^a nmol-hours/L; in data set [1] (single oral dose 800 mg in oil, listed as testosterone-alone), 328 ± 82 nmol·h/L. In addition, the “effect on serum testosterone levels” value is “elevate serum testosterone levels to the low normal range” in data set [3] (200 mg doses of oral testosterone, for up to eight hours) and “little effect” in data set [3] (oral unmodified testosterone at doses up to 100 mg, deficient men). The “serum DHT after oral administration in oil” value in data set [2] is “significantly increased the serum DHT in all men in a dose-dependent fashion”. In addition, in [5], the “half-life of testosterone, reported values” is 10 to 100 min.

Regarding `CC(=O)Nc1ccc(C[C@H](NC(=O)[C@H](CO)NC(=O)[C@@H](Cc2cccnc2)NC(=O)[C@@H](Cc2ccc(Cl)cc2)NC(=O)[C@@H](Cc2ccc3ccccc3c2)NC(C)=O)C(=O)N[C@H](Cc2ccc(NC(C)=O)cc2)C(=O)N[C@@H](CC(C)C)C(=O)N[C@@H](CCCCNC(C)C)C(=O)N2CCC[C@H]2C(=O)N[C@H](C)C(N)=O)cc1` [acyline] (Ac-[d2Nal][dPhe(4-Cl)][d3Pal]S[Phe(4-NH2)](Ac)[dPhe(4-NH2)](Ac)L[Lys(iPr)]P[dA]-NH2), in data set [6] (previously shown (Herbst et al.)), the “duration of suppression of endogenous testosterone production in men” value was 2 weeks. In [6] (single injection 300 mcg/kg SQ), the “duration of suppression of testosterone production in normal men” value is at least 15 days. In addition, the “serum DHT 24 hours after acyline administration (day 1)” value in data set [7] (all subjects, Day 0 DHT 1.6±0.6, P<0.05) was determined as 0.6 ± 0.2 nmol/L. Moreover, in data set [7] (all subjects, acyline 300 mcg/kg SQ, day zero 20.0±7.4, P<0.0001), the “serum testosterone 24 hours after acyline administration (day one)” value stood at 2.3 ± 0.5 nmol/L. For the same compound, the “serum DHT 24-hours post acyline” value came out at 0.6 ± 0.2 nmol/L in data set [7] (testosterone enanthate group) and 0.5 ± 0.2 nmol/L in data set [7] (testosterone group). Besides, the “serum testosterone 24-hours post acyline” value in [7] (testosterone enanthate group) came to 2.3 ± 0.8 nmol/L; in data set [7] (testosterone group) it was 2.3 ± 0.7 nmol/L. Besides, the injection-site reaction entry in data set [8] is “transient pruritis”.

For the compound `CC(C)(C)NC(=O)[C@H]1CC[C@H]2[C@@H]3CC[C@H]4NC(=O)C=C[C@]4(C)[C@H]3CC[C@]12C` [finasteride, (5α,17beta)-N-(1,1-dimethylethyl)-3-oxo-4-azaandrost-1-ene-17-carboxamide], in data set [9] (administration of finasteride), the “reduction of prostate DHT levels” value is 90% and the “reduction of serum DHT levels” value was 70%. In addition, the “increase of testosterone levels” value in data set [9] (men given finasteride (Gormley et al.)) was “about 10%”. In data set [10], the “levels of serum testosterone” value is given as “without substantial effect”.
